The target in this experiment is T1, JuvD-RhFRED (Micromonospora chalcea, UniProt A0A1Z1MZ59).
T1 sequence (A0A1Z1MZ59 1-402): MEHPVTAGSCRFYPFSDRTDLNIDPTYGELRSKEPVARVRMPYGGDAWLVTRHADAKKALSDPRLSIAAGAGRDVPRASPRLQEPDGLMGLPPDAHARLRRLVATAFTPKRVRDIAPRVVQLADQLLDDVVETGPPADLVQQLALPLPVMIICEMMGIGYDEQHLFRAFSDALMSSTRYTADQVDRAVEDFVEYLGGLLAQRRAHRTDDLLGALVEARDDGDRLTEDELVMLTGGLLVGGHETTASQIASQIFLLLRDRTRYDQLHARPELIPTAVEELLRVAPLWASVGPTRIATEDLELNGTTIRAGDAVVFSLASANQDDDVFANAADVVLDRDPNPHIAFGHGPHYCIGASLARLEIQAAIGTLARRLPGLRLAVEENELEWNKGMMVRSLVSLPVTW
Nature of the experiment: in vitro P450 oxidation. Format: biochemical. To be noted: C12-C13 epoxidation; enzyme preparation not given.

For `CC[C@H]1OC(=O)C[C@@H](O)[C@H](C)[C@@H](O[C@@H]2O[C@H](C)C[C@H](N(C)C)[C@H]2O)[C@@H](CC=O)C[C@@H](C)C(=O)/C=C/C(C)=C/[C@@H]1C` [compound 5, M-4365 G2], the “in vitro P450 oxidation” value was “this enzyme effectively converted each substrate to a single product”.

The record behind these values is paper PMC5532807 (Journal of the American Chemical Society, 2017).
